Assay results published in US10219516B2, “Molecules having pesticidal utility, and intermediates, compositions, and processes, related thereto” (priority 2015, dated 2019).
Read-outs that look alike come from different tables or passages of the source.

Key:
Format in all cases: in vivo
[1] = test system: Beet Armyworm (Spodoptera exigua, LAPHEG); assay: Bioassay on Beet Armyworm (BAW), 128-well diet tray assay
Procedure, shortened: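 Test molecule dissolved in acetone-water 90:10 is applied at 50 μg/cm^2 onto artificial diet and allowed to dry. Second instar larvae, one to five per well, are then added, and trays are vented and kept at 25° C. for five to seven days before mortality is scored.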

[2] = test system: Cabbage Looper (Trichoplusia ni, TRIPNI); assay: Bioassay on Cabbage Looper (CL), 128-well diet tray assay; conditions: Trichoplusia ni
Procedure, shortened: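 Second-instar larvae, one to five per well, were placed on artificial diet surface-treated with 50 μg/cm^2 test molecule applied in 90:10 acetone-water and dried, eight wells per molecule. Trays were covered, vented and held at 25° C., 14:10 light-dark for five to seven days; percent mortality per well was averaged.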

[3] = test system: Yellow Fever Mosquito (Aedes aegypti, AEDSAE); assay: Bioassay on Yellow Fever Mosquito (YFM), 96-well plate larval assay; conditions: for YFM (Biological Results, rating): Species YFM (Yellow Fever Mosquito); for YFM rating: Yellow Fever Mosquito, 96-well plate larval assay
Procedure, shortened: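 Aedes aegypti larvae (about 1 day old) in liver-powder water were added to plates dispensed from DMSO master plates (4000 ppm stock) diluted with 90:10 water/acetone; six replicate plates per master. Lidded plates were held at room temperature for 3 days, then each well was scored for mortality.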

[4] = Species BAW (Beet Armyworm), read-out: BAW (Biological Results, rating)
[5] = Species CL (Cabbage Looper), read-out: CL (Biological Results, rating)
[6] = Beet Armyworm, 128-well diet tray assay, read-out: BAW rating
[7] = Cabbage Looper, 128-well diet tray assay, read-out: CL rating

SMILES | pest or weed control at 50 µg/cm2 [1, 4] [%] | pest or weed control at 50 µg/cm2 [2, 5] [%] | YFM (Biological Results, rating) [3] | pest or weed control at 50 µg/cm2 [1, 6] [%] | pest or weed control at 50 µg/cm2 [2, 7] [%] | YFM rating [3]
COc1c(Cl)cc([C@H]2[C@H](C(=O)Nc3ccc(Cl)c(C(=O)Nc4ccccc4)c3)C2(Cl)Cl)cc1Cl (relative stereo) [F179, trans-2-chloro-5-(2,2-dichloro-3-(3,5-dichloro-4-methoxyphenyl)cyclopropane-1-carboxamido)-N-phenylbenzamide] | 50 to 100 | 50 to 100 | B (More than 0-Less than 80) | – | – | –
O=C(Nc1ccc(OCC(F)(F)F)cc1)c1cc(NC(=O)[C@H]2[C@H](c3cc(Cl)cc(Cl)c3)C2(Cl)Cl)ccc1Cl (relative stereo) [PF62, trans-2-Chloro-5-(2,2-dichloro-3-(3,5-dichlorophenyl)cyclopropane-1-carboxamido)-N-(4-(2,2,2-trifluoroethoxy)phenyl)benzamide] | – | – | – | 50 to 100 | 50 to 100 | A (80-100)
O=C(Nc1cncc(NO)c1)c1cc(NC(=O)[C@H]2[C@H](c3ccc(Cl)c(Cl)c3)C2(Cl)Cl)ccc1Cl [F526, 2-Chloro-5-((1R,3R)-2,2-dichloro-3-(3,4-dichlorophenyl)cyclopropane-1-carboxamido)-N-(5-(hydroxyamino)pyridin-3-yl)benzamide] | – | – | – | 50 to 100 | 50 to 100 | A (80-100)
N#Cc1cc(F)ccc1NC(=O)c1cc(NC(=O)[C@H]2[C@H](c3ccc(Cl)c(Br)c3)C2(Cl)Cl)ccc1Cl (relative stereo) [F332, 5-(trans-3-(3-Bromo-4-chlorophenyl)-2,2-dichlorocyclopropane-1-carboxamido)-2-chloro-N-(2-cyano-4-fluorophenyl)benzamide] | 50 to 100 | 50 to 100 | A (80-100) | – | – | –
O=C(Nc1ccc(F)cc1F)c1cc(NC(=O)[C@H]2[C@H](c3cc(Cl)cc(Cl)c3)C2(Cl)Cl)ccc1F (relative stereo) [F61, trans-5-(2,2-Dichloro-3-(3,5-dichlorophenyl)cyclopropane-1-carboxamido)-N-(2,4-difluorophenyl)-2-fluorobenzamide] | 50 to 100 | 50 to 100 | B (More than 0-Less than 80) | – | – | –
O=C(Nc1ccc(Cl)c(C(=O)N(CC(F)(F)F)c2ccc(F)cc2)c1)[C@H]1[C@H](c2cc(Cl)cc(Cl)c2)C1(Cl)Cl (relative stereo) [F100, trans-2-Chloro-5-(2,2-dichloro-3-(3,5-dichlorophenyl)cyclopropane-1-carboxamido)-N-(4-fluorophenyl)-N-(2,2,2-trifluoroethyl)benzamide] | 50 to 100 | 50 to 100 | A (80-100) | – | – | –
Nc1cc(F)cc(NC(=O)c2cc(NC(=O)[C@H]3[C@H](c4cc(Cl)c(Cl)c(Cl)c4)C3(Cl)Cl)ccc2Cl)c1 [F432, N-(3-Amino-5-fluorophenyl)-2-chloro-5-((1R,3R)-2,2-dichloro-3-(3,4,5-trichlorophenyl)cyclopropane-1-carboxamido)benzamide] | – | – | – | 50 to 100 | 50 to 100 | A (80-100)
O=C(Nc1ccc(I)cc1F)c1cc(NC(=O)[C@H]2[C@H](c3cc(Cl)cc(Cl)c3)C2(Cl)Cl)ccc1Cl (relative stereo) [F203, trans-2-Chloro-5-(2,2-dichloro-3-(3,5-dichlorophenyl)cyclopropane-1-carboxamido)-N-(2-fluoro-4-iodophenyl)benzamide] | 50 to 100 | 50 to 100 | A (80-100) | – | – | –
O=C(Nc1ccc(F)cc1F)c1cc(NC(=O)[C@H]2[C@H](c3ccc(Cl)c(C(F)F)c3)C2(Cl)Cl)ccc1Cl (relative stereo) [F559, 2-Chloro-5-(trans-2,2-dichloro-3-(4-chloro-3-(difluoromethyl)phenyl)cyclopropane-1-carboxamido)-N-(2,4-difluorophenyl)benzamide] | – | – | – | 50 to 100 | 50 to 100 | A (80-100)
CNc1ccc(NC(=O)c2cc(NC(=O)[C@H]3[C@H](c4ccc(F)c(Cl)c4)C3(Cl)Cl)ccc2Cl)c(C)c1 (relative stereo) [F224, trans-2-Chloro-5-(2,2-dichloro-3-(3-chloro-4-fluorophenyl)cyclopropane-1-carboxamido)-N-(2-methyl-4-(methylamino)phenyl)benzamide] | 50 to 100 | 50 to 100 | A (80-100) | – | – | –
Nc1ccc(F)c(NC(=O)c2cc(NC(=O)[C@H]3[C@H](c4ccc(Cl)c(Cl)c4)C3(Cl)Cl)ccc2Cl)c1 [F428, N-(5-Amino-2-fluorophenyl)-2-chloro-5-((1R,3R)-2,2-dichloro-3-(3,4-dichlorophenyl)cyclopropane-1-carboxamido)benzamide] | – | – | – | 50 to 100 | 50 to 100 | A (80-100)
Cc1cc(NC(=O)OC(C)(C)C)ccc1NC(=O)c1cc(NC(=O)[C@H]2[C@H](c3ccc(Cl)c(Cl)c3)C2(Cl)Cl)ccc1Cl [F277, tert-Butyl (4-(2-chloro-5-((1R,3R)-2,2-dichloro-3-(3,4-dichlorophenyl)cyclopropane-1-carboxamido)benzamido)-3-methylphenyl)carbamate] | 50 to 100 | 50 to 100 | A (80-100) | – | – | –
N#Cc1ccc(NC(=O)c2cc(NC(=O)[C@H]3[C@H](c4cc(Cl)cc(Cl)c4)C3(Cl)Cl)ccc2Cl)nc1 (relative stereo) [PF143, trans-2-Chloro-N-(5-cyanopyridin-2-yl)-5-(2,2-dichloro-3-(3,5-dichlorophenyl)cyclopropane-1-carboxamido)benzamide] | – | – | – | 50 to 100 | 50 to 100 | A (80-100)
O=C(Nc1ccc(F)cc1F)c1cc(NC(=O)[C@H]2[C@H](c3cc(F)c(Br)c(F)c3)C2(Cl)Cl)ccc1Cl (relative stereo) [F541, 5-(trans-3-(4-Bromo-3,5-difluorophenyl)-2,2-dichlorocyclopropane-1-carboxamido)-2-chloro-N-(2,4-difluorophenyl)benzamide] | – | – | – | 50 to 100 | 50 to 100 | A (80-100)
COc1nccc(NC(=O)c2cc(NC(=O)[C@H]3[C@H](c4ccc(F)c(Cl)c4)C3(Cl)Cl)ccc2Cl)c1Cl (relative stereo) [F547, 2-Chloro-N-(3-chloro-2-methoxypyridin-4-yl)-5-(trans-2,2-dichloro-3-(3-chloro-4-fluorophenyl)cyclopropane-1-carboxamido)benzamide] | – | – | – | 50 to 100 | 50 to 100 | A (80-100)
C=Cc1cc(NC(=O)c2cc(NC(=O)[C@H]3[C@H](c4cc(Cl)cc(Cl)c4)C3(Cl)Cl)ccc2Cl)cnc1F (relative stereo) [F399, 2-Chloro-5-(trans-2,2-dichloro-3-(3,5-dichlorophenyl)cyclopropane-1-carboxamido)-N-(6-fluoro-5-vinylpyridin-3-yl)benzamide] | – | – | – | 50 to 100 | 50 to 100 | A (80-100)
Nc1c(F)cc(NC(=O)c2cc(NC(=O)[C@H]3[C@H](c4cc(Cl)cc(Cl)c4)C3(Cl)Cl)ccc2Cl)cc1F [F378, N-(4-Amino-3,5-difluorophenyl)-2-chloro-5-((1R,3R)-2,2-dichloro-3-(3,5-dichlorophenyl)cyclopropane-1-carboxamido)benzamide] | – | – | – | 50 to 100 | 50 to 100 | B (More than 0-Less than 80)
COc1ccc(NC(=O)c2cc(NC(=O)[C@H]3[C@H](c4cc(Cl)cc(Cl)c4)C3(Cl)Cl)ccc2Cl)cc1N (relative stereo) [F199, trans-N-(3-Amino-4-methoxyphenyl)-2-chloro-5-(2,2-dichloro-3-(3,5-dichlorophenyl)cyclopropane-1-carboxamido)benzamide] | 50 to 100 | 50 to 100 | A (80-100) | – | – | –
Nc1c(F)ccc(NC(=O)c2cc(NC(=O)[C@H]3[C@H](c4cc(Cl)cc(Cl)c4)C3(Cl)Cl)ccc2Cl)c1F [F313, N-(3-Amino-2,4-difluorophenyl)-2-chloro-5-((1R,3R)-2,2-dichloro-3-(3,5-dichlorophenyl)cyclopropane-1-carboxamido)benzamide] | 50 to 100 | 50 to 100 | A (80-100) | – | – | –
O=C(Nc1ccc2nccn2c1)c1cc(NC(=O)C2C(c3cc(Cl)cc(Cl)c3)C2(Cl)Cl)ccc1Cl (stereo not drawn) [F475, 2-Chloro-5-(trans)-2,2-dichloro-3-(3,5-dichlorophenyl)cyclopropane-1-carboxamido)-N-(imidazo[1,2-a]pyridin-6-yl)benzamide] | – | – | – | 50 to 100 | 50 to 100 | A (80-100)
Cc1cc(N)ccc1NC(=O)c1cc(NC(=O)[C@H]2[C@H](c3ccc(F)c(Cl)c3)C2(Cl)Cl)ccc1Cl [F291, N-(4-Amino-2-methylphenyl)-2-chloro-5-((1R,3R)-2,2-dichloro-3-(3-chloro-4-fluorophenyl)cyclopropane-1-carboxamido)benzamide] | 50 to 100 | 50 to 100 | A (80-100) | – | – | –
